Converted amounts (≈) assume the structure as drawn. The source made the active and inactive calls.

The values that follow come from ChEMBL document CHEMBL3603753, “Carbamoyl Triazoles, Known Serine Protease Inhibitors, Are a Potent New Class of Antimalarials” (J Med Chem, 2015).

Data set [1] has as its system Plasmodium falciparum. Briefly: Antimalarial activity against Plasmodium falciparum 3D7 infected in erythrocytes incubated for 48 hrs by [3H]hypoxanthine incorporation assay. It is filed as functional, organism-based.
A further data set addresses Acetylcholinesterase (Homo sapiens, UniProt P22303). Nature of the data set: Inhibition of human AChE.
Data set [2] has as its target T1, Subtilisin-like protease 1 (Plasmodium falciparum, UniProt O61142).
T1 sequence (O61142 whole entry): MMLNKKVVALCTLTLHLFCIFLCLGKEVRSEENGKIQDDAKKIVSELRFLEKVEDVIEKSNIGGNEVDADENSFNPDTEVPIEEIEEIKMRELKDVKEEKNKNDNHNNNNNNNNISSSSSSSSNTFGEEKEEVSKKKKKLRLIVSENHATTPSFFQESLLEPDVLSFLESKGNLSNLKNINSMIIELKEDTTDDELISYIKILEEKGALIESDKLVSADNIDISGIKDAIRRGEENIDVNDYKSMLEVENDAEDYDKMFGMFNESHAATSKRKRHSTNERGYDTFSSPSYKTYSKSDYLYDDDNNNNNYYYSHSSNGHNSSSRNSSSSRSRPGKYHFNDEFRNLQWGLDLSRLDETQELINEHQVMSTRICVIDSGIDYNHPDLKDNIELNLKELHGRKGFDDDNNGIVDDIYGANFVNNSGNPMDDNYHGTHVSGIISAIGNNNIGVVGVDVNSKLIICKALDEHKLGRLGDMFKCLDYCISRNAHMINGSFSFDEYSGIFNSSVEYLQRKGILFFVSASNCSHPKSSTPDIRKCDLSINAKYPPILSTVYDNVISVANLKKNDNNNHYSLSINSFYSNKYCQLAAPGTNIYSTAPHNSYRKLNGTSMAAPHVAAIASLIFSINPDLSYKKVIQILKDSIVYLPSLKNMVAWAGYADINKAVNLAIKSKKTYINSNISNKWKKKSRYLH
Nature of the data set: Inhibition of Plasmodium falciparum recombinant SUB1 using SERA4st1F-6R12 substrate incubated for 55 mins by fluorescence spectrophotometry.

A further data set has as its system Liver microsome. Nature of the data set: Intrinsic clearance in human liver microsomes. It is filed as ADME.
The nature of data set [3]: Half life in mouse liver microsomes. It is filed as ADME. Background: Liver microsomes are vesicles of endoplasmic reticulum, rich in cytochrome P450 enzymes.
The subject of data set [4] is Plasmodium falciparum. Briefly: Antimalarial activity against Plasmodium falciparum 3D7 infected in erythrocytes incubated for 72 hrs by [3H]hypoxanthine incorporation assay. It is filed as functional, organism-based.
Data set [5] is described as follows: Half life in human liver microsomes. It is filed as ADME.
Data set [6] can be described thus: Kinetic solubility of the compound by chemoluminescent nitrogen detection kinetic solubility assay. It counts as physicochemical. To be noted: read-out: Kinetic_solubility.
The subject of a further data set is HepG2. Nature of the data set: Cytotoxicity against human HepG2 cells. It is filed as cell-based.
The test system of data set [7] is Plasmodium falciparum. Nature of the data set: Antimalarial activity against Plasmodium falciparum infected in erythrocytes assessed as young trophozoites level at 10 times antimalarial IC50 level incubated for 24 and 48 hrs by Giemsa staining based microsocpy.

Sequence of Acetylcholinesterase (P22303 whole entry): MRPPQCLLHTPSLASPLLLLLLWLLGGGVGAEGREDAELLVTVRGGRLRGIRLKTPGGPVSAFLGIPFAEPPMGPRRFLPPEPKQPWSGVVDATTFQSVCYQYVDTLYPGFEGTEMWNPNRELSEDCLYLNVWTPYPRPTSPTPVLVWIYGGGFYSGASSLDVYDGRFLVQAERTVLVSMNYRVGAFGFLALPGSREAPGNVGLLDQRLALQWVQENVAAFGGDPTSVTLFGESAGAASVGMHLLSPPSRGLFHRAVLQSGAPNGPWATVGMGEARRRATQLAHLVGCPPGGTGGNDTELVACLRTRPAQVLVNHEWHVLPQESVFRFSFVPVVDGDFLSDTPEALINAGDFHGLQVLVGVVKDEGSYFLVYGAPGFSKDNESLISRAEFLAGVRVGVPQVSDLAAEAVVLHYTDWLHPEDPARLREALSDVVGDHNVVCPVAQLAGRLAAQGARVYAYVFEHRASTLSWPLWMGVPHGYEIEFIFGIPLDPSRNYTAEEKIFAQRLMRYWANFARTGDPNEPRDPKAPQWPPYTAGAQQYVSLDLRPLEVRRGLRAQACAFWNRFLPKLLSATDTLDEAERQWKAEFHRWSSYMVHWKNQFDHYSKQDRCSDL

On to `CN(Cc1cccc(Cl)c1)C(=O)n1cnc(S(=O)(=O)[C@@H]2C[C@H]3CC[C@@H]2C3)n1`, for which, in the data set with Plasmodium falciparum [1], the midpoint of inhibition, the IC50, lay at 0.307 µM. For `CSc1nc(-c2ccc(OC(F)(F)F)cc2)nn1C(=O)N(C)c1ccccc1`, the IC50 (commonly the concentration needed to halve the response being measured) against Acetylcholinesterase was greater than 50000 µM. On to `O=C(N1CCCC1)n1cnc(S(=O)(=O)Cc2ccccc2)n1`, for which the results for the IC50 result (in [2]; in the data set on Plasmodium falciparum [1]) were “Not Active” and 0.418 µM, respectively. `CSc1nc(-c2ccc(OC(F)(F)F)cc2)nn1C(=O)N(C)C` showed an IC50 on Acetylcholinesterase of 200 µM. Compound `CN(C(=O)n1cnc(S(=O)(=O)[C@@H]2C[C@H]3CC[C@@H]2C3)n1)C(C)(C)C` came in with a half-inhibitory concentration (IC50) with Plasmodium falciparum [1] greater than 5 µM. As for `CN(Cc1ccccc1C(F)(F)F)C(=O)n1cnc(S(=O)(=O)[C@@H]2C[C@H]3CC[C@@H]2C3)n1`, the IC50 in the data set on Plasmodium falciparum [1] is 1.26 µM. On the same count and under the same terms, as for `O=C(N1CCCC1)n1cnc(SCc2ccccc2)n1`, the figure is 1.44 µM. Regarding `CN(Cc1ccccc1)C(=O)n1cnc(S(=O)(=O)[C@@H]2C[C@H]3CC[C@@H]2C3)n1`, in the data set on Liver microsome, the Intrinsic clearance came out at 1.5 mL/min/g. Further, the half-life (as a rule, the time needed for the level to fall by half in the phase considered) was 19.4 min in data set [3] and greater than 30 min in data set [5]. In addition, the IC50 in the data set with Plasmodium falciparum [1] is 0.256 µM; in the data set with Plasmodium falciparum [4], 0.379 µM.

In turn, `O=C(N1CCCCC1)n1cnc(S(=O)(=O)[C@@H]2C[C@H]3CC[C@@H]2C3)n1` yielded an IC50 with Plasmodium falciparum [1] of 0.626 µM. Regarding `CN(Cc1ccc(C(C)(C)C)cc1)C(=O)n1cnc(S(=O)(=O)[C@@H]2C[C@H]3CC[C@@H]2C3)n1`, the half-life in [3] was 9 min. For the same compound, the solubility kinetic in [6] stood at 28 µM (≈ 12.1 µg/mL). Further, the results for the IC50 with HepG2 and in the data set on Plasmodium falciparum [1] were 75.2 µM and 0.016 µM, respectively.

Compound `O=C(N1CCc2ccccc2C1)n1cnc(S(=O)(=O)[C@@H]2C[C@H]3CC[C@@H]2C3)n1` came in with an IC50 in the data set with Plasmodium falciparum [1] greater than 5 µM. On the same count and under the same terms, to `CN(Cc1cccc(C#N)c1)C(=O)n1cnc(S(=O)(=O)[C@@H]2C[C@H]3CC[C@@H]2C3)n1` belongs 3.43 µM; to `CC(=O)c1ccc(CN(C)C(=O)n2cnc(S(=O)(=O)[C@@H]3C[C@H]4CC[C@@H]3C4)n2)cc1`, 0.05 µM; to `CCN(CC)C(=O)n1cnc(S[C@@H]2C[C@H]3CC[C@@H]2C3)n1`, 2.24 µM. Regarding `O=C1C(O)=C([C@H]2CC[C@H](c3ccc(Cl)cc3)CC2)C(=O)c2ccccc21` [ATOVAQUONE], in the data set with Plasmodium falciparum [7], the result was Active. The IC50 in the data set on Plasmodium falciparum [1] worked out at 0.001 µM; in the data set on Plasmodium falciparum [4], 0.0003 µM. Consider `CN(Cc1ccc(Cl)cc1)C(=O)n1cnc(S(=O)(=O)[C@@H]2C[C@H]3CC[C@@H]2C3)n1`, for which half-maximal inhibition with Plasmodium falciparum [1] (IC50) required 0.602 µM. Consider `CC(C)N(C(=O)n1cnc(S(=O)(=O)[C@@H]2C[C@H]3CC[C@@H]2C3)n1)C(C)C`, for which the half-inhibitory concentration (IC50) in the data set with Plasmodium falciparum [1] and in the data set with Plasmodium falciparum [4] was greater than 5 µM throughout. For the compound `O=C(N1CCCC1)n1cnc(S[C@@H]2C[C@H]3CC[C@@H]2C3)n1`, the Intrinsic clearance in the data set on Liver microsome was 1.5 mL/min/g. The results for the half-life in data set [3] and in data set [5] were less than 5 min and greater than 30 min, respectively. Moreover, the IC50 with Plasmodium falciparum [1] was 0.178 µM. `CCN(C)C(=O)n1cnc(S(=O)(=O)c2c(C)cc(C)cc2C)n1`: in the data set on Plasmodium falciparum [1], the IC50 amounted to 0.164 µM. On the same count and under the same terms, as for `COc1cccc(CN(C)C(=O)n2cnc(S(=O)(=O)[C@@H]3C[C@H]4CC[C@@H]3C4)n2)c1`, the figure is 0.036 µM; as for `CN(Cc1cccc(F)c1)C(=O)n1cnc(S(=O)(=O)[C@@H]2C[C@H]3CC[C@@H]2C3)n1`, 0.373 µM.

For the compound `CN(Cc1ccc(C(F)(F)F)cc1)C(=O)n1cnc(S(=O)(=O)[C@@H]2C[C@H]3CC[C@@H]2C3)n1`, half-maximal inhibition with Plasmodium falciparum [1] (IC50) was put at 0.554 µM. In the data set on Plasmodium falciparum [1], `CN(C(=O)n1cnc(S[C@@H]2C[C@H]3CC[C@@H]2C3)n1)c1ccccc1` returned an IC50 greater than 5 µM. On the same count and under the same terms, as for `COc1ccc(CN(C(=O)n2cnc(S(=O)(=O)[C@@H]3C[C@H]4CC[C@@H]3C4)n2)C2CC2)cc1`, the figure is 1.02 µM; as for `CN(Cc1ccc(F)cc1)C(=O)n1cnc(S(=O)(=O)[C@@H]2C[C@H]3CC[C@@H]2C3)n1`, 0.197 µM. Same read-out and setting: as for `CN(Cc1ccccc1F)C(=O)n1cnc(S(=O)(=O)[C@@H]2C[C@H]3CC[C@@H]2C3)n1`, the figure is 0.18 µM; as for `CN(Cc1ccc(S(C)(=O)=O)cc1)C(=O)n1cnc(S(=O)(=O)[C@@H]2C[C@H]3CC[C@@H]2C3)n1`, 0.29 µM. The same measure, in the same setting: to `CCN(CC)C(=O)n1cnc(S(=O)(=O)[C@@H]2C[C@H]3CC[C@@H]2C3)n1` belongs 0.585 µM. As for `CCN(C)C(=O)n1cnc(S(=O)(=O)[C@@H]2C[C@H]3CC[C@@H]2C3)n1`, in the data set on Plasmodium falciparum [1], 0.093 µM corresponded to half-maximal inhibition (IC50). As to `CC(C)N(C)C(=O)n1cnc(S[C@@H]2C[C@H]3CC[C@@H]2C3)n1`, the IC50 result in data set [2] is “Not Active”; in the data set on Plasmodium falciparum [1], 0.071 µM. Compound `O=C(N1CCCC1)n1cnc(S(=O)(=O)[C@@H]2C[C@H]3CC[C@@H]2C3)n1` had an Intrinsic clearance in the data set on Liver microsome of 1 mL/min/g. The half-life in [3] was less than 5 min; in data set [5], greater than 30 min. In addition, the results for the IC50 in the data set on Plasmodium falciparum [1] and in the data set on Plasmodium falciparum [4] were 0.084 µM and 0.037 µM, respectively. With `CN(C)C(=O)n1cnc(S(=O)(=O)c2ccc(Cl)cc2)n1`, half-maximal inhibition in the data set on Plasmodium falciparum [1] (IC50) required 0.571 µM. `CC(C)N(C(=O)n1cnc(S[C@@H]2C[C@H]3CC[C@@H]2C3)n1)C(C)C` displayed an Intrinsic clearance in the data set on Liver microsome of 3.1 mL/min/g. Besides, the half-life in data set [3] was less than 5 min; in [5], 22.3 min. Besides, the half-inhibitory concentration (IC50) result in data set [2] was “Not Active”; with Plasmodium falciparum [1] it was 1.42 µM; in the data set on Plasmodium falciparum [4], 0.537 µM. Take `CN(Cc1ccccc1Cl)C(=O)n1cnc(S(=O)(=O)[C@@H]2C[C@H]3CC[C@@H]2C3)n1`: in the data set on Plasmodium falciparum [1], the IC50 was 0.725 µM.

For the compound `CC(C)N(C)C(=O)n1cnc(S(=O)(=O)C2CCCCC2)n1`, the IC50 with Plasmodium falciparum [1] stood at 0.028 µM. The same measure, in the same setting: as for `CC(C)N(C)C(=O)n1cnc(S(=O)(=O)C2C3CC4CC(C3)CC2C4)n1` (configuration not stated), the figure is 0.008 µM. The same measure, in the same setting: as for `CN(C)C(=O)n1cnc(S[C@@H]2C[C@H]3CC[C@@H]2C3)n1`, the figure is 0.141 µM.

In turn, `Cc1nc(S(=O)(=O)[C@@H]2C[C@H]3CC[C@@H]2C3)nn1C(=O)N(C)C(C)C` returned an IC50 with Plasmodium falciparum [1] greater than 4 µM. Same read-out and setting: as for `CN(Cc1cccnc1)C(=O)n1cnc(S(=O)(=O)[C@@H]2C[C@H]3CC[C@@H]2C3)n1`, the figure is 0.086 µM. Same read-out and setting: to `COc1ccc(CN(C)C(=O)n2cnc(S(=O)(=O)[C@@H]3C[C@H]4CC[C@@H]3C4)n2)c(OC)c1` belongs 0.03 µM. On the same count and under the same terms, as for `CCN(C)C(=O)n1cnc(Sc2c(C)cc(C)cc2C)n1`, the figure is 1.9 µM. Consider `CN(C)C(=O)n1cnc(S(=O)(=O)[C@@H]2C[C@H]3CC[C@@H]2C3)n1`, for which half-maximal inhibition in the data set on Plasmodium falciparum [1] (IC50) was put at 0.047 µM. Same read-out and setting: as for `COc1ccc(CN(C(=O)n2cnc(S(=O)(=O)[C@@H]3C[C@H]4CC[C@@H]3C4)n2)C(C)C)cc1`, the figure is 0.84 µM.

For the compound `CN(Cc1cccc(C(F)(F)F)c1)C(=O)n1cnc(S(=O)(=O)[C@@H]2C[C@H]3CC[C@@H]2C3)n1`, in the data set on Plasmodium falciparum [1], the IC50 is 1.86 µM. In turn, `CC(C)N(C)C(=O)n1cnc(S(=O)(=O)c2ccc(Cl)cc2)n1` registered an IC50 in the data set on Plasmodium falciparum [1] of 0.019 µM. On to `CN(C(=O)n1cnc(S(=O)(=O)[C@@H]2C[C@H]3CC[C@@H]2C3)n1)c1ccccc1`, for which the IC50 in the data set on Plasmodium falciparum [1] was 2.69 µM; in the data set on Plasmodium falciparum [4], 2.71 µM.

Turning to `CCCN(C)C(=O)n1cnc(S(=O)(=O)[C@@H]2C[C@H]3CC[C@@H]2C3)n1`, the 50% inhibitory concentration (IC50) with Plasmodium falciparum [1] came out at 0.145 µM.
